The results in this text go back to patent publication US8357671B2, “High affinity Siglec ligands” (priority 2005, dated 2013).

Experiment [1] has as its target T1, CD22Fc chimeras (hCD22Fc) (Homo sapiens, UniProt P20273).
T1 construct: made in house; host or cells: COS cells
Kind of experiment: ELISA-type assay of IgM/NP-BPC/CD22 complex formation. The class given is binding. The protocol:
FIG. 7A-7C illustrate a self-assembling B cell targeting complex as one aspect of the invention. […] CD22-Fc chimeras were immobilized onto protein A coated wells. After washing, the indicated amount of either NP, or NP-BPC was added along with the anti-NP IgM was added and allowed to bind for 30 min at room temperature. After washing, bound IgM was detected with HRP-conjugated anti-IgM and developed with OPD. Data are the average ±S.D. of triplicates, and are representative of 3 independent experiments.
ELISA-Type Assay. High Binding microtiter plates were coated with neutravidin (1 ug/50 ul/well in Na Bicarbonate pH 9.5) overnight at 4° C., then washed with 200 ul of HBSS/BSA. Culture supernatants containing hCD22Fc chimera were incubated in the wells for 2 h at room temperature. Wells were then washed and a mixture of IgM antibodies that recognize nitrophenyl groups (anti-NP antibodies) and 50 ul of varying concentrations of the BPC-Siaα2-6LN heterobifunctional ligand were added. The plates were allowed to bind for 30 min. […]
CD22Fc chimeras were immobilized onto microtiter plates and overlaid with mixtures of IgM anti-NP and NP or NP-BPC. Following washing, bound IgM complex was detected with HRP-conjugated anti-Ig antibodies. CD22-dependent binding of the complex was detected, with maximal IgM complex binding achieved when using less than 200 nM NP-BPC.

For experiment [2], the target named is T2, CD22 on sialylated (native) BJAB cells (Homo sapiens, UniProt P20273).
T2 construct: endogenous in cells; host or cells: BJAB cells (incl. K20 subclone)
T2 sequence (P20273 20-847): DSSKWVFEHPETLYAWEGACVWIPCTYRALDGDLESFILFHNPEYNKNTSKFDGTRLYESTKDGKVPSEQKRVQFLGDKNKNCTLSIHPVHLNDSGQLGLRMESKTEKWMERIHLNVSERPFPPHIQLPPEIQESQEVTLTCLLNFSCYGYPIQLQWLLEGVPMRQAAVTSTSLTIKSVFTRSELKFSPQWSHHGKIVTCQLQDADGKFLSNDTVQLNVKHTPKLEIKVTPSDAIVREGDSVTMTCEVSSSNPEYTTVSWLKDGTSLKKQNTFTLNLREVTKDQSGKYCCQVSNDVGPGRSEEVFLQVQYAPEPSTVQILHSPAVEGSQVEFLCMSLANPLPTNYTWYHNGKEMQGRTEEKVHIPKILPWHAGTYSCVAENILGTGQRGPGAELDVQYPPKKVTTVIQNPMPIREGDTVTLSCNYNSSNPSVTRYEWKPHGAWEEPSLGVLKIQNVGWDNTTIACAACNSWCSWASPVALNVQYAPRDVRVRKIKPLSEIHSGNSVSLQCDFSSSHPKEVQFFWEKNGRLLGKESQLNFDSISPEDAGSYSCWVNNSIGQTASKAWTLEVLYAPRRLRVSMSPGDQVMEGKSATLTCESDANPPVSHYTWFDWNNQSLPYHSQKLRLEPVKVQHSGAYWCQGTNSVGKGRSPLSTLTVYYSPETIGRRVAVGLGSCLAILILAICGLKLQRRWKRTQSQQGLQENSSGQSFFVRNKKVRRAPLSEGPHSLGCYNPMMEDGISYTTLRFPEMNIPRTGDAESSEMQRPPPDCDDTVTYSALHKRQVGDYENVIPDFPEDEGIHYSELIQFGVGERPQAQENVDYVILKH
Kind of experiment: Self-assembled IgM complex binding to sialylated BJAB cells. The class given is cell-based. As to conditions: high concentration of cis ligands.

Experiment [3] addresses T3, CD22 on asialo K20 cells (BJAB subclone) (Homo sapiens, UniProt P20273).
T3 sequence (P20273 20-847): T2 sequence (P20273 20-847)
Kind of experiment: Self-assembled IgM complex binding to asialo cells.
Description: Following washing, bound IgM was detected with FITC-labeled anti-Ig and read by flow cytometry. […] Free NP, the heterobifunctional ligand, and the IgM anti-NP were all added to BJAB cells and allowed to incubate on ice before washing. Bound IgM was detected as described for FIG. 5B. […] After binding of a self-assembled complex of NP-BPC and Alexa Fluor-labeled anti-NP IgM antibodies to BJAB cells on ice, the cells were washed and allowed to internalize the complex for the indicated period of time. After a brief acid wash to remove any surface IgM, internalized IgM was quantified by flow cytometry.
Cell Binding. BJAB cells, incubated with or without exogenous sialic acid (4 mM) for 2 days, were resuspended in HBSS/BSA at a density of 1×10^6 cells/ml and the varying amounts of IgM and the BPC-NP construct shown in FIG. 7 were added to the cells and allowed to bind for 1 hr on ice. Cells were then washed with 1 ml of HBSS/BSA and then incubated with FITC-labeled anti-IgM for 30 min on ice. After washing again, the cells were read by flow cytometry.
To further evaluate the ability for the IgM complex to bind to CD22 on B cells, cells deficient in cell-surface sialic acid were used.

In experiment [4] the target is T4, human CD22 (Homo sapiens, UniProt P20273).
T4 construct: made in house
Kind of experiment: ELISA inhibition assay: CD22-Fc chimera binding to immobilized NeuAc-LN. To be noted: for IC50: inhibition of CD22-Fc binding to immobilized NeuAcα2,6LacNAc, read-out: IC 50 value hCd22; for rIP hCd22 (relative inhibitory potency): relative to NeuAc-LN = 1. The procedure:
(§1) FIG. 1A-B illustrate that sialosides with derivation at position 9 that includes a neutral core and a hydrophobic moiety are potent inhibitors for CD22. Similar inhibitors can be made by derivation at position 5. […] FIG. 1B graphically illustrates competitive inhibition of selected sialoside inhibitors. Inhibitors were added with soluble CD22-Fc chimeras to block the chimera binding to immobilized NeuAcα2-6Galβ1-4GlcNAc (NeuAc-LN, human CD22, hCD22) or NeuGcα2,6Galβ1-4GlcNAc (NeuGc-LN, mouse CD22, mCD22). Data are the average +/−S.D. of triplicate determinations and are representative of two individual assays.
(§2) ELISA inhibition assays: For inhibition assays, high binding 96 well microtiter plates (Corning Costar) were coated with neutravidin by incubation with 50 ul of 1 mg/ml Neutravidin (Pierce Biotechnology) in 50 mM Na bicarbonate pH 9.5 overnight at 4° C. The wells were then washed with PBS and blocked with PBS containing 5 mg/ml BSA for 1 hr at 37° C. Fifty microliters of a selected biotinylated sialoside (0.33 uM) was added to each well, and allowed to bind for 1 hr at room temperature. The sialoside was then allowed to bind for 1 hr at 37° C. and the wells were washed.
(§3) The CD22-Fc chimera employed was produced as described in Blixt et al. (J. Biol. Chem. 278: 31007-19 (2003)) and diluted to 0.1 mg/ml into HBSS (with 5 mg/ml BSA and 1 mM EDTA). An F(ab′)2 Fragment Goat anti-Human IgG (Jackson Immunoresearch) (0.066 mg/ml) was mixed and allowed to complex with Peroxidase conjugated F(AB′)2 Fragment Rabbit anti Goat F(ab′)2 specific (0.010 mg/ml) for 15 min. CD22-Fc (1.5 ml) was added to 1 ml of the pre-complexed solution and allowed to further associate with complexes in that solution for 15 min. The inhibitor of interest was diluted into HBSS. Twenty-five microliters of the inhibitor and 25 ul of the CD22Fc complex were added to each well and the plates were incubated for 30 min at 37° C. The plates were then washed 4 times with 200 ul of HBSS. Wells were developed with 50 ul of 1 mg/ml OPD (Sigma), 0.03% H2O2 in 50 mM phosphate/citrate, pH 5.0. The reaction was stopped with 50 ul of 2.5 M H2SO4 and the optical density at 450 nm (OD450) was measured.

For experiment [5], the target named is T5, cell surface CD22 (hCD22) on Daudi cells (Homo sapiens, UniProt P20273).
T5 construct: endogenous in cells; host or cells: Daudi cells (sialidase-treated)
T5 sequence (P20273 20-847): T2 sequence (P20273 20-847)
In words: Inhibition of NeuAc-LN-PAA probe binding to sialidase-treated Daudi cells. To be noted: inhibitor 10, 30, 200 uM. The class given is cell-based. The procedure: FIG. 2A-B illustrate inhibition of multivalent sialoside probe binding to cell surface CD22 by potent biphenyl (BP) derivatives. FIG. 2A provides the results for murine splenocytes. Murine splenocytes were mock-treated (grey shaded peak) or actually treated with A. ureafaciens sialidase to cleave sialic acid-containing glycans from cell surfaces and thereby ‘unmask’ surface CD22. The cells were then incubated with NeuGc-LN-PAA alone (rightmost Black line, where PAA refers to a polyacrylamide carrier) or in the presence of 5 uM (light line to the right of center), 200 uM (central grey line) or 2 mM (leftmost dark grey line) of the indicated inhibitor for 1.5 h on ice, then washed. Bound probe was detected with streptavidin-PE, and B cells stained with anti-B220. Data are for B220+ cells only. FIG. 2B provides results for Daudi Cells. […] Bound probe was detected with streptavidin-PE and measured by flow cytometry. […]
Inhibition of Probe-Binding to B cells by Sialic Acid Inhibitors. […] These “cis” glycan ligands can mask binding of sialic acid ligands provided in “trans.” After treatment with sialidase, inhibition of B cell binding by monovalent BPC-NeuAc-LN and BPA-NeuGc-LN was detected for multivalent polyacrylamide (PAA) sialoside probes derivatized with NeuAc-LN (hCD22) or NeuGc-LN (mCD22) (FIG. 2).

Experiment [6] addresses T6, mouse CD22 (Mus musculus, UniProt P35329).
T6 construct: made in house
In words: ELISA inhibition assay: CD22-Fc chimera binding to immobilized NeuGc-LN. To be noted: for IC50: inhibition of CD22-Fc binding to immobilized NeuGcα2,6LacNAc, read-out: IC 50 value mCd22; for rIP mCd22 (relative inhibitory potency): relative to NeuGc-LN = 1. The protocol:
as §1, §2, §3
In general terms: An ELISA detects its analyte on a solid surface through an enzyme-linked reagent.

Experiment [7] concerns Siglec 10. Kind of experiment: PAA probe binding to Siglec 10. To be noted: result in words. The text has this: Building on the binding studies described above, polyacrylamide (PAA) probes containing the BPA-NeuGc-LN or BPC-NeuAc-LN sialosides were synthesized and tested for binding to CD22. […] Siglec 10 another B cell lectin, however, binds well to the NeuGc-LN glycan, but in contrast to CD22, only weakly to the high molecular weight BPA derivative.

The subject of experiment [8] is BJAB cells. Kind of experiment: Measurement of probe internalization. It counts as cell-based, human. To be noted: caveolin inhibitor.
Description: To generate the data shown in FIG. 5A, BJAB cells grown in the presence of sera and supplemented with NeuAc were incubated with the high molecular weight BPC-NeuAc-LN-PAA (light and heavy lines) or LN-PAA (Shaded) probes for 1.5 h on ice, followed by CyChrome labeled streptavidin for 45 min on ice. After washing, the cells were then incubated at 37° C. for the indicated period of time. Following this incubation, cells were washed with HBSS/BSA (shaded peak and heavy line) or RPMI pH 2.5 (light line). Bound or internalized probe was detected by flow cytometry. To generate the data shown in FIG. 5B, cells were washed with RPMI:Water (1/1) and then incubated for 1 hr in media with or without potassium. After pre-chilling on ice, cells were incubated in the corresponding media with the BPC-NeuAc-LN-PAA probe and then internalization was measured as above. Data are the average of two independent experiments.
Measurement of probe internalization. BJAB cells (2×10^6 cell/ml) were labeled with the PAA probe and streptavidin as above. Following staining, aliquots of 100 ul of the cell suspension were placed on ice or at 37° C. for selected periods of time. […]
Similarly, the ability for B cells to endocytose the PAA probes was determined. […] The remaining fluorescence as measured by flow cytometry as a measure of the amount of internalized probe.

Several values for one entry are separate records, joined by “and”; a condition that tells them apart may be missing. Identical values can stand only once. Bounds are passed on as bounds.

T4 sequence (P20273 with tags, fused parts or gaps limits assumed): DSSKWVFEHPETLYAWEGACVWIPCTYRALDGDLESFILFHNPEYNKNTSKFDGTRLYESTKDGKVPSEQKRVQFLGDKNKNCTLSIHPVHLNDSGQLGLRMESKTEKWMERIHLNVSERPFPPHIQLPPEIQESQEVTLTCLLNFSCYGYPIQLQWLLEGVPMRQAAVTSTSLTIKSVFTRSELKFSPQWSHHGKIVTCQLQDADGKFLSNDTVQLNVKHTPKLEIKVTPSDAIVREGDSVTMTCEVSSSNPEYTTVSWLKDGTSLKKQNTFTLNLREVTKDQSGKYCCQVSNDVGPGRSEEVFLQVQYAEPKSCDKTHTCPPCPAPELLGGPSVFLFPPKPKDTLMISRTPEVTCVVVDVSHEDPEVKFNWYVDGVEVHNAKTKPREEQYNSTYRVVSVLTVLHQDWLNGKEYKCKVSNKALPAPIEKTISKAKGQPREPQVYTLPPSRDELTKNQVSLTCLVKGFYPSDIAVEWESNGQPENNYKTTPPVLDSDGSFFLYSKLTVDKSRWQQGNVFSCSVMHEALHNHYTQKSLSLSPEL
T6 sequence (P35329 with tags, fused parts or gaps limits assumed): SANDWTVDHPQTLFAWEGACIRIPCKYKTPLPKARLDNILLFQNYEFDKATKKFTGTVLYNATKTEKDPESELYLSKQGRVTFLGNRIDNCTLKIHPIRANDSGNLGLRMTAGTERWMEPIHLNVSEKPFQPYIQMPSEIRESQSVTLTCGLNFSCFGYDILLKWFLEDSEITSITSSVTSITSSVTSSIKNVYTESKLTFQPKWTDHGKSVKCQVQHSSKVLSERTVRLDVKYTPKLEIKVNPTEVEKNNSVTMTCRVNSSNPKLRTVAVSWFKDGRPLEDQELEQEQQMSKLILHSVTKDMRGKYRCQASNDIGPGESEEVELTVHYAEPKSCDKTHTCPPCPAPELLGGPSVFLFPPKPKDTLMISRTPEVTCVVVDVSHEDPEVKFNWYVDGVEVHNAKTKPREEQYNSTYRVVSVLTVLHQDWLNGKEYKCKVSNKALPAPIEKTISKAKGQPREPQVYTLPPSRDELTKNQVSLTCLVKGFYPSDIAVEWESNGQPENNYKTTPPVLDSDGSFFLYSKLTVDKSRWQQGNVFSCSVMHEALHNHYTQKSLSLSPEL
T1 sequence (P20273 with tags, fused parts or gaps limits assumed): as the sequence (P20273 with tags, fused parts or gaps limits assumed) above

For the compound `CC(=O)N[C@H]1[C@H](OCCNC(=O)Cc2ccc(O)c([N+](=O)[O-])c2)O[C@H](CO)[C@@H](O[C@@H]2O[C@H](CO[C@]3(C(=O)O)C[C@H](O)[C@@H](NC(C)=O)[C@H]([C@H](O)[C@H](O)CNC(=O)c4ccc(-c5ccccc5)cc4)O3)[C@H](O)[C@H](O)[C@H]2O)[C@@H]1O` [NP-BPC, [(4′-hydroxyl-3′-nitrophenylacetamido)-ethyl-β-]-[[5-Acetamido-9-[(1,1′-biphenyl)-4-carboxamido]-3,5,9,trideoxy-D-glycero-D-galacto-2-nonulo-pyranosyl-onate-α2-6-O-D-galactopyranosyl-β1-4]]-D-2-acetamido-2-deoxy-glucopyranoside], the “concentration for maximal IgM complex binding” value in experiment [1] is “less than 200 nM”. For the same compound, the “binding to CD22 on sialylated BJAB cells” value in experiment [2] was “bound efficiently”. Further, the “concentration at maximal binding of the complex” value in experiment [3] is 0.16 µM.
Take “9-biphenylcarbonyl (BPC)-Neu5Acα2-6Galβ1-4GlcNAc [BPC-NeuAcLN]”: in experiment [4], the IC50 was 2 µM and 2.2 µM; the “rIP hCd22 (relative inhibitory potency)” value was determined as 100. In addition, the “inhibition of NeuAc-LN-PAA probe binding” value in experiment [5] is on record as “complete inhibition”. Besides, in experiment [6], the IC50 is 242 µM and the “rIP mCd22 (relative inhibitory potency)” value is recorded as 0.91.
As to `CC(=O)NC1C(O)OC(CO)C(OC2OC(COC3(C(=O)O)CC(O)C(NC(=O)CO)C(C(O)C(O)CO)O3)C(O)C(O)C2O)C1O` (stereo not drawn) [NeuGc-LN, NeuGcα2,6Galβ1-4GlcNAc], in experiment [7], the “binding to Siglec 10” value is “binds well”. In experiment [4], the IC50 worked out at 260 µM and the “rIP hCd22 (relative inhibitory potency)” value stood at 0.85. For the same compound, in experiment [6], the IC50 stood at 221 µM and the “rIP mCd22 (relative inhibitory potency)” value is 1.
On to `CC(=O)N[C@H]1[C@H]([C@H](O)[C@H](O)CO)OC(O)(C(=O)O)C[C@@H]1O` (stereo partly drawn) [NeuAc, N-acetylneuraminic acid], for which, in experiment [4], the IC50 was greater than 2000 µM and the “rIP hCd22 (relative inhibitory potency)” value is less than 0.1. Further, in experiment [4] (result in words), the “inhibition of Siglec binding to immobilized sialoside” value was “no inhibition”. Moreover, in experiment [6], the IC50 was greater than 2000 µM and the “rIP mCd22 (relative inhibitory potency)” value was less than 0.1.
With `C[C@@H]1[C@H](O)[C@@H](C)/C=C/C=C/CC/C=C/C=C/C=C/C=C/C(O[C@H]2O[C@H](C)[C@@H](O)[C@H](N)[C@@H]2O)CC2O[C@](O)(CC(O)C(O)CCC(O)CC(O)CC(O)CC(=O)O[C@H]1C)CC(O)C2C(=O)O` (stereo partly drawn) [nystatin], in experiment [8], the “effect on probe internalization” value is recorded as “did not inhibit”.
Consider `CC(=O)N[C@@H]1[C@@H](O)[C@H](O[C@@H]2O[C@H](CO[C@]3(C(=O)O)C[C@H](O)[C@@H](NC(C)=O)[C@H]([C@H](O)[C@H](O)CO)O3)[C@H](O)[C@H](O)[C@H]2O)[C@@H](CO)O[C@H]1O` [NeuAc-LN, NeuAcα2-6Galβ1-4GlcNAc], for which, in experiment [4], the IC50 was 200 µM and 220 µM; the “rIP hCd22 (relative inhibitory potency)” value was 1. Also, in experiment [6], the IC50 is greater than 2000 µM and the “rIP mCd22 (relative inhibitory potency)” value was less than 0.1.
Consider `CC(=O)NC1C(O)CC(O)(C(=O)O)OC1C(O)C(O)CNC(=O)c1ccc(-c2ccccc2)cc1` [BPC-NeuAc, 5-Acetamido-9-[(1,1′-biphenyl)-4-carboxamido]-3,5,9-trideoxy-D-glycero-D-galacto-2-nonulo-pyranosyl-onate], for which, in experiment [4], the IC50 is 35 µM and the “rIP hCd22 (relative inhibitory potency)” value is 6.3. In addition, in experiment [6], the IC50 stood at 1500 µM and the “rIP mCd22 (relative inhibitory potency)” value is recorded as 0.15.
